Experimental data reported in ChEMBL document CHEMBL1139783, “Cyclonatsudamine A, a new vasodilator cyclic peptide from Citrus natsudaidai” (2007).
Calls of active or inactive are those of the source. The rule behind the calls is not given here. Where a SMILES comes first, the peptide text is derived from it.

Columns and labels:
Aorta [1] = test: Vasorelaxation effect on norepinephrine-induced contractions in rat aorta with endothelium at 0.1 uM; format: functional; design: scale not given: the % may be the effect or the level left
Aorta [2] = test: Inhibition of drug-induced vasorelaxation in rat aorta precontracted with norepinephrine in presence of nitric oxide synthase inhibitor L-NAME; format: functional, tissue-based
Aorta [3] = test: Vasorelaxation effect on norepinephrine-induced contractions in rat endothelium-denuded aorta; format: functional, tissue-based
Aorta [4] = test: Vasorelaxation effect on norepinephrine-induced contractions in rat aorta with endothelium at 100 uM; format: functional; design: scale not given: the % may be the effect or the level left

SMILES: CC(C)C[C@@H]1NC(=O)[C@H](Cc2ccc(O)cc2)NC(=O)CNC(=O)[C@H](CO)NC(=O)[C@@H]2CCCN2C(=O)[C@@H]2CCCN2C(=O)[C@H](CC(C)C)NC1=O [CYCONATSUDAMINE A] (cyclo(GYLLPPS))
- Activity (Aorta [1]): 40%
- Activity (Aorta [2]): Active
- Activity (Aorta [3]): inactive
- Activity (Aorta [4]): 80%
